Target: T1, human factor Xa (Homo sapiens, UniProt P00742)
T1 construct: 25 μl human factor Xa (Enzyme Research Laboratories, Inc; South Bend, Ind.); purchased Enzyme Research Laboratories, Inc; South Bend, Ind
Assay: Factor Xa assay (chromogenic, purified enzyme)
Type: biochemical
Conditions: inhibition constant for factor Xa; chromogenic substrate S-2765 140 μM, enzyme 0.5 nM, 25° C., pH 7.8; Ki=IC50/{1+(substrate concentration/Km)}; read-out: Ki(FXa)
Procedure, shortened: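 Human factor Xa (0.5 nM) pre-incubated 10 min with compound in TBS-PEG/DMSO, then S-2765 (140 μM) added; initial hydrolysis rate read at 405 nm, 25°C. IC50 by linear regression of relative rate vs log concentration; Ki = IC50/(1+[S]/Km).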

T1 sequence (P00742 235-488 limits assumed): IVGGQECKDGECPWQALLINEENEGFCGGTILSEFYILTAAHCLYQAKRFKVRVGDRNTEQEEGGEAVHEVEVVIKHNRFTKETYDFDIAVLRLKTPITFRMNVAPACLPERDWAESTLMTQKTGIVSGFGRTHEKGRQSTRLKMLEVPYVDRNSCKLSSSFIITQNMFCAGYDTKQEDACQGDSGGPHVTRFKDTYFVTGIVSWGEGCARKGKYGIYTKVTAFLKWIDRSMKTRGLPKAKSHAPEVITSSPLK
T1 sequence (P00742 41-179 partner limits assumed): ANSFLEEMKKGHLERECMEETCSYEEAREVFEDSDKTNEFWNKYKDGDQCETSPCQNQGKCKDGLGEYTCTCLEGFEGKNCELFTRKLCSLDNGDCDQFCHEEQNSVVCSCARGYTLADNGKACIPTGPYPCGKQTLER

SMILES	Ki [nM]
CC(C)N1CCC(NC(=O)c2cc(C(=O)NCCN3CCNC3=O)nn2Cc2cc(-c3ccc(Cl)s3)on2)CC1 [Example 73, 1-[5-(5-Chloro-thiophen-2-yl)-isoxazol-3-ylmethyl]-1H-pyrazole-3,5-dicarboxylic acid 5-[(1-isopropyl-piperidin-4-yl)-amide] 3-{[2-(2-oxo-imidazolidin-1-yl)-ethyl]-amide}]	83
CC(C)N1CCC(NC(=O)c2cc(C(=O)NCC(F)(F)F)nn2Cc2cc(-c3ccc(Cl)s3)on2)CC1 [Example 74, 1-[5-(5-Chloro-thiophen-2-yl)-isoxazol-3-ylmethyl]-1H-pyrazole-3,5-dicarboxylic acid 5-[(1-isopropyl-piperidin-4-yl)-amide] 3-[(2,2,2-trifluoro-ethyl)-amide]]	86
CC(C)N1CCC(NC(=O)c2cc(C(=O)NC3CCS(=O)(=O)C3)nn2Cc2cc(-c3ccc(Cl)s3)on2)CC1 (centres unmarked) [Example 75, 1-[5-(5-Chloro-thiophen-2-yl)-isoxazol-3-ylmethyl]-1H-pyrazole-3,5-dicarboxylic acid 3-[(1,1-dioxo-tetrahydro-1-thiophen-3-yl)-amide] 5-[(1-isopropyl-piperidin-4-yl)-amide]]	76
CC(C)N1CCC(NC(=O)c2cc(C(=O)NCCCN3CCCC3=O)nn2Cc2cc(-c3ccc(Cl)s3)on2)CC1 [Example 76, 1-[5-(5-Chloro-thiophen-2-yl)-isoxazol-3-ylmethyl]-1H-pyrazole-3,5-dicarboxylic acid 5-[(1-isopropyl-piperidin-4-yl)-amide] 3-{[3-(2-oxo-pyrrolidin-1-yl)-propyl]-amide}]	83
CC(C)N1CCC(NC(=O)c2cc(C(=O)N3CCC3)nn2Cc2cc(-c3ccc(Cl)s3)on2)CC1 [Example 77, 5-(Azetidine-1-carbonyl)-2-[5-(5-chloro-thiophen-2-yl)-isoxazol-3-ylmethyl]-2H-pyrazole-3-carboxylic acid (1-isopropyl-piperidin-4-yl)-amide]	63
CC(C)N1CCC(NC(=O)c2cc(C(=O)N3CCSC3)nn2Cc2cc(-c3ccc(Cl)s3)on2)CC1 [Example 78, 2-[5-(5-Chloro-thiophen-2-yl)-isoxazol-3-ylmethyl]-5-(thiazolidine-3-carbonyl)-2H-pyrazole-3-carboxylic acid (1-isopropyl-piperidin-4-yl)-amide]	144
CC(C)N1CCC(NC(=O)c2cc(C(=O)NC(C(=O)O)C(F)(F)F)nn2Cc2cc(-c3ccc(Cl)s3)on2)CC1 (centres unmarked) [Example 79, 2-{[1-[5-(5-Chloro-thiophen-2-yl)-isoxazol-3-ylmethyl]-5-(1-isopropyl-piperidin-4-ylcarbamoyl)-1H-pyrazole-3-carbonyl]-amino}-3,3,3-trifluoro-propionic acid]	80
CC(C)N1CCC(NC(=O)c2cc(C(=O)NC[Si](C)(C)C)nn2Cc2cc(-c3ccc(Cl)s3)on2)CC1 [Example 80, 1-[5-(5-Chloro-thiophen-2-yl)-isoxazol-3-ylmethyl]-1H-pyrazole-3,5-dicarboxylic acid 5-[(1-isopropyl-piperidin-4-yl)-amide] 3-trimethylsilanylmethyl-amide]	149
CC(C)N1CCC(NC(=O)c2cc(C(=O)N3CCC(N4CCCC4=O)CC3)nn2Cc2cc(-c3ccc(Cl)s3)on2)CC1 [Example 81, 2-[5-(5-Chloro-thiophen-2-yl)-isoxazol-3-ylmethyl]-5-[4-(2-oxo-pyrrolidin-1-yl)-piperidine-1-carbonyl]-2H-pyrazole-3-carboxylic acid (1-isopropyl-piperidin-4-yl)-amide]	142
CC(C)N1CCC(NC(=O)c2cc(C(=O)NS(C)(=O)=O)nn2Cc2cc(-c3ccc(Cl)s3)on2)CC1 [Example 82, 2-[5-(5-Chloro-thiophen-2-yl)-isoxazol-3-ylmethyl]-5-methanesulfonylaminocarbonyl-2H-pyrazole-3-carboxylic acid (1-isopropyl-piperidin-4-yl)-amide]	184
CC(C)N1CCC(NC(=O)c2cc(C(=O)N3CC(O)C3)nn2Cc2cc(-c3ccc(Cl)s3)on2)CC1 [Example 83, 2-[5-(5-Chloro-thiophen-2-yl)-isoxazol-3-ylmethyl]-5-(3-hydroxy-azetidine-1-carbonyl)-2H-pyrazole-3-carboxylic acid (1-isopropyl-piperidin-4-yl)-amide]	104
CC(C)N1CCC(NC(=O)c2cc(-c3ccco3)n(Cc3cc(-c4ccc(Cl)s4)on3)n2)CC1 [Example 84, 1-[5-(5-Chloro-thiophen-2-yl)-isoxazol-3-ylmethyl]-5-furan-2-yl-1H-pyrazole-3-carboxylic acid (1-isopropyl-piperidin-4-yl)-amide]	42
CC(C)N1CCC(NC(=O)c2cc(C(=O)O)n(Cc3cc(-c4ccc(Cl)s4)on3)n2)CC1 [Example 85, 2-[5-(5-Chloro-thiophen-2-yl)-isoxazol-3-ylmethyl]-5-(1-isopropyl-piperidin-4-ylcarbamoyl)-2H-pyrazole-3-carboxylic acid]	185
CC(C)N1CCC(NC(=O)c2cc(C(=O)N3CCC3)n(Cc3cc(-c4ccc(Cl)s4)on3)n2)CC1 [Example 86, 5-(Azetidine-1-carbonyl)-1-[5-(5-chloro-thiophen-2-yl)-isoxazol-3-ylmethyl]-1H-pyrazole-3-carboxylic acid (1-isopropyl-piperidin-4-yl)-amide]	142
CC(C)N1CCC(NC(=O)c2cc(C(=O)NCCS(N)(=O)=O)n(Cc3cc(-c4ccc(Cl)s4)on3)n2)CC1 [Example 87, 1-[5-(5-Chloro-thiophen-2-yl)-isoxazol-3-ylmethyl]-1H-pyrazole-3,5-dicarboxylic acid 3-[(1-isopropyl-piperidin-4-yl)-amide] 5-[(2-sulfamoyl-ethyl)-amide]]	181
CC(C)N1CCC(NC(=O)c2cc(C(=O)N(CCO)CCO)nn2Cc2cc(-c3ccc(Cl)s3)on2)CC1 [Example 88, 1-[5-(5-Chloro-thiophen-2-yl)-isoxazol-3-ylmethyl]-1H-pyrazole-3,5-dicarboxylic acid 3-[bis-(2-hydroxy-ethyl)-amide] 5-[(1-isopropyl-piperidin-4-yl)-amide]]	106
CC(C)N1CCC(NC(=O)c2cc(C(=O)NC(CO)(CO)CO)nn2Cc2cc(-c3ccc(Cl)s3)on2)CC1 [Example 89, 1-[5-(5-Chloro-thiophen-2-yl)-isoxazol-3-ylmethyl]-1H-pyrazole-3,5-dicarboxylic acid 3-[(2-hydroxy-1,1-bis-hydroxymethyl-ethyl)-amide] 5-[(1-isopropyl-piperidin-4-yl)-amide]]	192
CC(C)OC(=O)CNC(=O)c1cc(C(=O)NC2CCN(C(C)C)CC2)n(Cc2cc(-c3ccc(Cl)s3)on2)n1 [Example 90, {[1-[5-(5-Chloro-thiophen-2-yl)-isoxazol-3-ylmethyl]-5-(1-isopropyl-piperidin-4-ylcarbamoyl)-1H-pyrazole-3-carbonyl]-amino}-acetic acid isopropyl ester]	240
CC(C)OC(=O)CNC(=O)c1cc(C(=O)NC2CCN(C(C)C)CC2)n(CC(=O)Nc2ccc(Cl)cn2)n1 [Example 92, {[1-[(5-Chloro-pyridin-2-ylcarbamoyl)-methyl]-5-(1-isopropyl-piperidin-4-ylcarbamoyl)-1H-pyrazole-3-carbonyl]-amino}-acetic acid isopropyl ester]	41
CCOC(=O)CNC(=O)c1cc(C(=O)NC2CCN(C(C)C)CC2)n(CC(=O)Nc2ccc(Cl)cn2)n1 [Example 93, {[1-[(5-Chloro-pyridin-2-ylcarbamoyl)-methyl]-5-(1-isopropyl-piperidin-4-ylcarbamoyl)-1H-pyrazole-3-carbonyl]-amino}-acetic acid ethyl ester]	36
CC(C)N1CCC(NC(=O)c2cc(C(=O)NCC(=O)O)nn2CC(=O)Nc2ccc(Cl)cn2)CC1 [Example 94, {[1-[(5-Chloro-pyridin-2-ylcarbamoyl)-methyl]-5-(1-isopropyl-piperidin-4-ylcarbamoyl)-1H-pyrazole-3-carbonyl]-amino}-acetic acid]	23
CC(C)N1CCC(NC(=O)c2cc(C(=O)N3CC(O)C3)nn2CC(=O)Nc2ccc(Cl)cn2)CC1 [Example 95, 2-[(5-Chloro-pyridin-2-ylcarbamoyl)-methyl]-5-(3-hydroxy-azetidine-1-carbonyl)-2H-pyrazole-3-carboxylic acid (1-isopropyl-piperidin-4-yl)-amide]	39
CC(C)N1CCC(NC(=O)c2cc(C(=O)OCC3CC3)nn2CC(=O)Nc2ccc(Cl)cn2)CC1 [Example 96, 1-[(5-Chloro-pyridin-2-ylcarbamoyl)-methyl]-5-(1-isopropyl-piperidin-4-ylcarbamoyl)-1H-pyrazole-3-carboxylic acid cyclopropylmethyl ester]	18
CCOC(=O)C(NC(=O)c1cc(C(=O)NC2CCN(C(C)C)CC2)n(Cc2cc(-c3ccc(Cl)s3)on2)n1)C(C)C (centres unmarked) [Example 97, 2-{[1-[5-(5-Chloro-thiophen-2-yl)-isoxazol-3-ylmethyl]-5-(1-isopropyl-piperidin-4-ylcarbamoyl)-1H-pyrazole-3-carbonyl]-amino}-3-methyl-butyric acid ethyl ester]	228
CC(C)C(NC(=O)c1cc(C(=O)NC2CCN(C(C)C)CC2)n(Cc2cc(-c3ccc(Cl)s3)on2)n1)C(=O)O (centres unmarked) [Example 98, 2-{[1-[5-(5-Chloro-thiophen-2-yl)-isoxazol-3-ylmethyl]-5-(1-isopropyl-piperidin-4-ylcarbamoyl)-1H-pyrazole-3-carbonyl]-amino}-3-methyl-butyric acid]	140
O=C(Nc1ccc(N2CCOCC2=O)cc1)c1cc(-c2ccco2)n(Cc2cc(-c3ccc(Cl)s3)on2)n1 [Example 99, 1-[5-(5-Chloro-thiophen-2-yl)-isoxazol-3-ylmethyl]-5-furan-2-yl-1H-pyrazole-3-carboxylic acid [4-(3-oxo-morpholin-4-yl)-phenyl]-amide]	11

From patent US20080306056A1, “PYRAZOLE-DERIVATIVES AS FACTOR Xa INHIBITORS” (SANOFI-AVENTIS DEUTSCHLAND GMBH, priority 2002, published 2008)
